The target in assay [1] is human GABAA α5β2γ1 receptor (Homo sapiens (Human), UniProt P31644+Q8N1C3). The assay can be described thus: Radioligand binding assay, competition for [3H]RO7239181, γ1-containing GABAA subtypes. The protocol:
The affinity of compounds at GABAA γ1 subunit-containing receptors was measured by competition for [^3H]RO7239181 (67.3 Ci/mmol; Roche) binding to membranes from HEK293F cells (ThermoFisher R79007) expressing human (transiently transfected) receptors of composition α5β2γ1, α2β2γ1, α1β2γ1. For better protein expression of the α2 subunit-containing receptors, the 28 amino acid long signal peptide (Met1 to Ala28) of the human GABAA α2 subunit was substituted by the 31 amino acid long signal peptide (Met1 to Ser31) of human GABAA α5 subunit.
(§1) Harvested pellets from HEK293F cells expressing the different GABAA receptor subtypes were resuspended in Mannitol Buffer pH 7.2-7.4 (Mannitol 0.29 M, Triethylamine 10 mM, Acetic acid 10 mM, EDTA 1 mM plus protease inhibitors (20 tablets Complete, Roche Diagnostics Cat. No. 05 056 489 001 per liter)), washed two times and then resuspended at 1:10 to 1:15 dilution in the same buffer. Cell disruption was performed by stirring the suspension in a Parr vessel #4637 at 435 psi for 15 minutes, and then the suspensions were centrifuged at 1000×g for 15 minutes at 4° C. (Beckman Avanti J-HC; rotor JS-4.2). The supernatant (S1) was transferred in a 21 Schott flask and the pellet (P1) was resuspended with Mannitol Buffer up to 175 ml. The resuspended pellet was transferred into a 250 ml Corning centrifugal beaker and centrifuged at 1500×g for 10 minutes at 4° C. (Beckman Avanti J-HC; rotor JS-4.2). The supernatant (S1) was then transferred in the 21 Schott flask and the pellet was discarded. The supernatants (S1) were centrifuged in 500 ml Beckman polypropylene centrifugal beaker at 15'000×g for 30 minutes at 4° C. (Beckman Avanti J-20 XP; rotor JLA-10.500). The pellet (P2) was resuspended with Mannitol Buffer 1:1 and frozen at −80° C. The supernatant (S2) was centrifuged in 100 ml Beckman polypropylene centrifugal tubes at 48000×g for 50 minutes at 4° C. (Beckman Avanti J-20 XP; rotor JA-18). The supernatant (S3) was discarded and the pellet (P3) was resuspended with 1:1 Mannitol Buffer. The P2 and P3 protein concentration was determined with the BIORAD Standard assay method with bovine serum albumin as standard and measured on the NANO-Drop 1000. The membrane suspension was aliquots (500 μl per tube) and stored at −80° C. until required.
(§2) Membrane homogenates were resuspended and polytronised (Polytron PT1200E Kinematica AG) in Potassium Phosphate 10 mM, KCl 100 mM binding buffer at pH 7.4 to a final assay concentration determined with a previous experiment.
Radioligand binding assays were carried out in a volume of 200 μL (96-well plates) which contained 100 μL of cell membranes, [^3H]RO7239181 at a concentration of 1.5 nM (α5β2γ1) or 20-30 nM (α1β2γ1, α2β2γ1) and the test compound in the range of [0.3-10000]×10^−9 M. Nonspecific binding was defined by 10×10^−6 (α5β2γ1) and 30×10^−6 M RO7239181 and typically represented less than 5% (α5β2γ1) and less than 20% (α1β2γ1, α2β2γ1) of the total binding. Assays were incubated to equilibrium for 1 hour at 4° C. and then, membranes were filtered onto unifilter (96-well white microplate with bonded GF/C filters preincubated 20-50 minutes in 0.3% Polyethylenimine) with a Filtermate 196 harvester (Packard BioScience) and washed 4 times with cold Potassium Phosphate 10 mM pH 7.4, KCl 100 mM binding buffer. After anhydrousing, filter-retained radioactivity was detected by liquid scintillation counting. Ki values were calculated using Excel-Fit (Microsoft) and are the means of two determinations.

The target of assay [2] is human GABAA α2β2γ1 receptor (Homo sapiens (Human), UniProt P47869+Q8N1C3). The assay is described as above. The method, then:
The affinity of compounds at GABAA γ1 subunit-containing receptors was measured by competition for [^3H]RO7239181 (67.3 Ci/mmol; Roche) binding to membranes from HEK293F cells (ThermoFisher R79007) expressing human (transiently transfected) receptors of composition α5β2γ1, α2β2γ1, α1β2γ1.
as §1, §2
Assays were incubated to equilibrium for 1 hour at 4° C. and then, membranes were filtered onto unifilter (96-well white microplate with bonded GF/C filters preincubated 20-50 minutes in 0.3% Polyethylenimine) with a Filtermate 196 harvester (Packard BioScience) and washed 4 times with cold Potassium Phosphate 10 mM pH 7.4, KCl 100 mM binding buffer. After anhydrousing, filter-retained radioactivity was detected by liquid scintillation counting. Ki values were calculated using Excel-Fit (Microsoft) and are the means of two determinations.

The target of assay [3] is human GABAA α1β3γ2 receptor (Homo sapiens (Human), UniProt P14867+P18507). The assay can be described thus: Radioligand binding assay, competition for [3H]Flumazenil, γ2-containing GABAA subtypes. Particulars: for γ2/γ1 Selectivity Ratio: Ki α1β3γ2 (nM)/Ki α2β2γ1 (nM); for LogSel: Log[Ki α1β3γ2 (nM)/Ki α2β2γ1 (nM)]. The method, then:
The affinity of compounds at GABAA γ2 subunit-containing receptors was measured by competition for [^3H]Flumazenil (81.1 Ci/mmol; Roche) binding to HEK293F cells expressing human (transiently transfected) receptors of composition α1β3γ2.
Harvested pellets from HEK293F cells expressing the different GABAA γ2 receptor subtypes were resuspended in Mannitol Buffer pH 7,2-7,4 and processed as described above for the cells expressing the GABAA γ1 subunit-containing receptors.
Assays were incubated to equilibrium for 1 hour at 4° C. and harvested onto GF/C uni-filters (Packard) by filtration using a Packard harvester and washing with ice-cold wash buffer (50 mM Tris; pH 7.5). After anhydrousing, filter-retained radioactivity was detected by liquid scintillation counting. Ki values were calculated using Excel-Fit (Microsoft) and are the means of two determinations.

The target of a further assay is h-GABA-A α2β2γ1 (Homo sapiens (Human), UniProt P47869+Q8N1C3). The assay can be described thus: Two-electrode voltage clamp electrophysiology in Xenopus oocytes expressing GABAA receptors. The assay is classed as cell-based. Conditions: α2β2γ1 GABAA receptor subtype expressing oocytes, reference PAMs. The protocol: Xenopus Oocytes Preparation Xenopus laevis oocytes at maturation stages V-VI were used for the expression of cloned mRNA encoding GABAA receptor subunits. Oocytes ready for RNA micro-injection were bought from Ecocyte, Castrop-Rauxel, Germany and stored in modified Barth's medium (composition in mM: NaCl 88, KCl 1, NaHCO3 2.4, HEPES 10, MgSO4 0.82, CaNO3 0.33, CaCl2 0.33, pH=7.5) at 20° C. until the experiment.
Oocytes were plated in 96-well plates for microinjection using the Roboinject automated instrument (MultiChannelSystems, Reutlingen, Germany). Approximately 50 nL of an aqueous solution containing the RNA transcripts for the subunits of the desired GABAA receptor subtype was injected into each oocyte. […] Oocytes were kept in modified Barth's medium (composition in mM: NaCl 88, KCl 1, NaHCO3 […], HEPES 10, MgSO4 0.82, CaNO3 0.33, CaCl2 0.33, pH=7.5) at 20° C. until the experiment.
Electrophysiological experiments were performed using the Roboocyte instrument (MultiChannelSystems, Reutlingen, Germany) on days 3 to 5 after the micro-injection of mRNA. During the experiment the oocytes were constantly superfused by a solution containing (in mM) NaCl 90, KCl 1, HEPES 5, MgCl2 1, CaCl2 1 (pH 7.4). Oocytes were impaled by two glass microelectrodes (resistance: 0.5-0.8 MQ) which were filled with a solution containing KCl 1M+K-acetate 1.5 M and voltage-clamped to −80 mV. The recordings were performed at room temperature using the Roboocyte two-electrode voltage clamp system (Multichannelsystem). After an initial equilibration period of 1.5 min GABA was added for 1.5 min at a concentration evoking approximately 20% of a maximal current response (EC20). After another rest interval of 2.5 min GABA was again added evoking a response of similar amplitude and shape. […] Current traces were recorded at a digitization rate of 10 Hz during and shortly before and after the GABA application.
Each compound and concentration was tested on at least 3 oocytes. Different oocytes were used for different compound concentrations.
For the analysis, the digitized current traces of the first and second GABA response were superimposed and, if necessary, rescaled to equal maximal amplitudes. The ratio between the two responses during the time interval of test compound application was calculated point by point. The extremum of the resulting “ratio trace” was taken as the efficacy (“Fold increase”) of the compound expressed as “% modulation of GABA EC20” (100*(Fold increase−1)).

Where [4] appears, read: Ki h-GABAA α2β2γ1, membranes of HEK293F cells, [3H]RO7239181 20-30 nM, Table 1.
The mark [5] stands for this setting: Ki h-GABAA α2β2γ1, membranes of HEK293F cells, [3H]RO7239181 20-30 nM, Table 2.

Like-named read-outs stand apart in the source and are kept apart here.

Take `Cc1nnc2n1-c1sc3c(c1C(c1c(F)cccc1F)=N[C@H]2C)CCCCC3F` (single isomer, unassigned) [Example 10]: the Ki is 2.72 nM in assay [1], 18.2 nM in assay [2] (setting [4]), 18.2 nM in assay [2] (setting [5]) and 1160 nM in assay [3]. In assay [3] (Table 1), the “γ2/γ1 Selectivity Ratio” value is 63.6. Besides, the LogSel in assay [3] (Table 1) is recorded as 1.80.
`Cc1nnc2n1-c1sc3c(c1C(c1c(F)cccc1F)=N[C@H]2C)COCC[C@@H]3F` (single isomer, unassigned) [Example 55]: the Ki in assay [1] turned out to be 9 nM; in assay [2] (setting [4]), 47.8 nM; in assay [2] (setting [5]), 47.8 nM; in assay [3] it was 2690 nM. Moreover, in assay [3] (Table 1), the “γ2/γ1 Selectivity Ratio” value turned out to be 56.2. This molecule also came in with a LogSel in assay [3] (Table 1) of 1.75.
Regarding `Cc1nnc2n1-c1ccc(Cl)cc1C(c1ccccc1)=NC2` [Alprazolam, reference compound], the LogSel in assay [3] (Table 3) is −2.3.
As to `Clc1ccc2c(c1)C(c1ccccc1)=NCc1nncn1-2` [Estazolam, reference compound], in assay [3] (Table 3), the “γ2/γ1 Selectivity Ratio” value came out at 0.0089 and the LogSel is listed as −2.0.
For the molecule `C[C@@H]1N=C(c2c(F)cccc2F)c2c(sc3c2CCCCC3)-n2c1n[nH]c2=O` [Example 6, (7S)-9-(2,6-difluorophenyl)-7-methyl-18-thia-2,4,5,8-tetrazatetracyclo[8.8.0.02,6.011,17]octadeca-1(10),5,8,11(17)-tetraen-3-one], the Ki in assay [1] turned out to be 3.69 nM; in assay [2] (setting [4]) it was 37.3 nM; in assay [2] (setting [5]), 37.3 nM; in assay [3], 2440 nM. Also, the “γ2/γ1 Selectivity Ratio” value in assay [3] (Table 1) is given as 65.3. Moreover, the LogSel in assay [3] (Table 1) is given as 1.82.
Consider `[2H]C1([2H])OCc2c(sc3c2C(c2c(F)cccc2F)=N[C@@H](C)c2nc(C(=O)N4CC(OCC)C4)nn2-3)OC1([2H])[2H]` [Example 32, (3-Ethoxyazetidin-1-yl)-[(7S)-14,14,15,15-tetradeuterio-9-(2,6-difluorophenyl)-7-methyl-13,16-dioxa-18-thia-2,3,5,8-tetrazatetracyclo[8.8.0.02,6.011,17]octadeca-1(10),3,5,8,11(17)-pentaen-4-yl]methanone], for which the Ki was determined as 1.88 nM in assay [1]; 7.7 nM in assay [2] (setting [4]); 7.7 nM in assay [2] (setting [5]); 5780 nM in assay [3] (HEK293F cells, [3H]Flumazenil 1 nM, Table 1, read-out: Ki h-GABAA α1β3γ2). In assay [3] (Table 1), the “γ2/γ1 Selectivity Ratio” value stood at 747.9. This molecule yielded a LogSel in assay [3] (Table 1) of 2.87.
On to `Cc1nnc2n1-c1sc3c(c1C(c1c(F)cccc1F)=N[C@H]2C)COCC[C@H]3F` [Example 54, (7S,16R)-9-(2,6-difluorophenyl)-16-fluoro-3,7-dimethyl-13-oxa-18-thia-2,4,5,8-tetrazatetracyclo[8.8.0.02,6.011,17]octadeca-1(10),3,5,8,11(17)-pentaene], for which the Ki in assay [1] was 9.1 nM; in assay [2] (setting [4]), 35.8 nM; in assay [2] (setting [5]), 35.8 nM; in assay [3], 5080 nM. In addition, in assay [3] (Table 1), the “γ2/γ1 Selectivity Ratio” value was 141.9.
As for `CN1C(=O)CN=C(c2ccccc2F)c2cc([N+](=O)[O-])ccc21` [Flunitrazepam, reference compound], the “potentiation of the GABA-induced current” value on h-GABA-A α2β2γ1 was about 60%.
`Cc1ncc2n1-c1ccc(Cl)cc1C(c1ccccc1F)=NC2` [Midazolam, reference compound] came in with a LogSel in assay [3] (Table 3) of −2.2. The “potentiation of the GABA-induced current” value at h-GABA-A α2β2γ1 is on record as about 60%.
As for `Cc1nnc2n1-c1sc3c(c1C(c1c(F)cccc1F)=N[C@H]2C)CCCC3` [RE-B, (7S)-9-(2,6-difluorophenyl)-3,7-dimethyl-17-thia-2,4,5,8-tetrazatetracyclo[8.7.0.02,6.011,16]heptadeca-1(10),3,5,8,11(16)-pentaene, reference compound], the Ki in assay [2] (Ki h-GABAA α2β2γ1, Table 3, reference compounds and examples) is 57.7 nM; in assay [3], 21.6 nM. In addition, the “γ2/γ1 Selectivity Ratio” value in assay [3] (Table 3) stood at 2.68.
`Cc1nnc2n1-c1ccc(Cl)cc1C(c1ccccc1Cl)=NC2` [Triazolam, reference compound] displayed a LogSel in assay [3] (Table 3) of −1.5. Moreover, the “potentiation of the GABA-induced current” value at h-GABA-A α2β2γ1 is about 60%.

(Values after patent US20240294543A1, “CYCLOHEPTA-THIENO-DIAZEPINE DERIVATIVES AS GABA A GAMMA1 PAM” (Hoffmann-La Roche Inc., priority 2021, published 2024).)
